# Measurements as given in patent US11596145B2, “Anti-freezing agent for protecting biological tissue during freezing treatment and preparation method therefor” (TAIPEI VETERANS GENERAL HOSPITAL, priority 2016, dated 2023).
# How the values were obtained:
# human cartilage tissue [1] = assay: Protection of human cartilage tissue during liquid nitrogen freezing (HE stain, separation of cartilage from hard bone); conditions: applied to articular cartilage, liquid nitrogen 20 minutes, warmed to room temperature 20 minutes
# Description: Unneeded normal cartilage tissues (residual specimens) taken from the human body during surgery were divided into three groups and treated separately: control group A was not treated; for control group B, traditional commercially available anti-freezing agent was applied to articular cartilage; and for experimental group C, the anti-freezing agent of the present invention was applied to the articular cartilage. The control and experimental groups were separately placed in liquid nitrogen to freeze for 20 minutes, slowly warmed to room temperature for 20 minutes, fixed with 4% paraformaldehyde, pathologically sectioned, and then stained by hematoxylin-eosin. […] The size of separation was 2.16 mm in the control group A, 1.2 mm in the control group B, and 0.45 mm in the experimental group. It was shown that the anti-freezing agent of the present invention can protect cartilage tissue and reduce the separation of cartilage and hard bone caused by freezing.
# human cartilage tissue [2] = assay: Change of cartilage color index (luminance level of cartilage surface) after freezing; conditions: applied to articular cartilage; liquid nitrogen 20 minutes, warmed to room temperature 20 minutes
# Description: Unneeded normal cartilage tissues (residual specimens) taken from the human body during surgery were divided into three groups and treated separately: control group A was not treated; for control group B, traditional commercially available anti-freezing agent was applied to articular cartilage; and for experimental group C, the anti-freezing agent of the present invention was applied to the articular cartilage. The control and experimental groups were separately placed in liquid nitrogen to freeze for 20 minutes, and then slowly warmed to room temperature for 20 minutes. The color index change of the cartilage surface was observed by analyzing the decrease of luminance level of the cartilage surface.
# rat knee cartilage = assay: Protective effect on rat knee cartilage during liquid nitrogen freezing (HE stain of pathological sections); conditions: coated at articular cartilage; liquid nitrogen 20 minutes, warmed to room temperature 20 minutes
# Experimental: The rat knee cartilage was taken out. The control group A was not treated, and the control group B was coated with a conventional commercially available anti-freezing agent (dimethyl sulfoxide) at the articular cartilage. The experimental groups were coated with the anti-freezing agent of the present invention at the articular cartilage, separately placed in liquid nitrogen for 20 minutes, slowly warmed to room temperature for 20 minutes, fixed with 4% paraformaldehyde, pathologically sectioned, and then stained with hematoxylin-eosin (HE stain). The pathological sections of hematoxylin-eosin stained control group (A), control group (B), and experimental group (C). are shown in FIG. 2. After freezing, in the control group A the cartilage surface became brittle and uneven (as indicated by the arrow), and the control group B was also uneven (as indicated by the arrow).
structure (smiles),measurement,setting,value
C[S+](C)[O-] [dimethyl sulfoxide],separation at the intersection of the cartilage bottom and the hard bone after freezing,human cartilage tissue [1]; HE stain,separation (the stellate) also occurred
same,size of separation,human cartilage tissue [1]; untreated control 2.16 mm,1.2 mm
same,decrease of luminance level of the cartilage surface after freezing,human cartilage tissue [2],significantly decreased
same,cartilage surface after freezing (hematoxylin-eosin stained section),rat knee cartilage,uneven
